In ChEMBL document CHEMBL4052642, “4-Methyl-6,7-dihydro-4H-triazolo[4,5-c]pyridine-Based P2X7 Receptor Antagonists: Optimization of Pharmacokinetic Properties Leading to the Identification of a Clinical Candidate” (J Med Chem, 2017):
Converted amounts (≈) assume the structure as drawn. The source made the active and inactive calls. The calls are words filed in the database; no cut-off is given here.

Key:
[1] = target: P2X purinoceptor 3 (Homo sapiens) (UniProt P56373); test: Antagonist activity at P2X3 (unknown origin) assessed as inhibition of BzATP-induced calcium flux up to 10 uM preincubated for 30 mins followed by BzATP addition measured over 180 secs by FLIPR assay
Cynomolgus monkey = test: Oral bioavailability in cynomolgus monkey at 5 mg/kg by LC-MS/MS analysis; assay type: ADME, organism-based, Macaca fascicularis; details: in vivo
Canis familiaris [2] = test: Toxicity in dog at 30 to 300 mg/kg administered via oral gavage on day 1 and day 5 by histopathological method; assay type: organism-based, Canis lupus familiaris; details: in vivo
[3] = Clearance in beagle dog at 0.5 mg/kg, iv or 2.5 mg/kg, po by LC-MS/MS analysis; assay type: ADME, organism-based, Canis lupus familiaris; details: in vivo
[4] = Solubility of compound in phosphate buffer at pH 2 after 3 days; assay type: physicochemical
[5] = Half life in beagle dog at 0.5 mg/kg, iv by LC-MS/MS analysis; assay type: ADME, organism-based, Canis lupus familiaris; details: in vivo
Canis familiaris [6] = test: Drug uptake in dog at 30 to 300 mg/kg administered via oral gavage on day 1 and day 5; assay type: ADME, organism-based, Canis lupus familiaris; details: in vivo
[7] = Protein binding in mouse plasma at 1 uM after 6 hrs by equilibrium dialysis method; assay type: ADME, cell-free; details: read-out: PPB (converted)
Canis familiaris [8] = test: Inhibition of LPS/Bz-ATP-induced IL-1beta release in dog blood at 3 mg/kg, po after 4 to 96 hrs; assay type: functional, organism-based; details: Canis lupus familiaris
[9] = Apparent permeability across basolateral to apical side in human Caco2 cells; assay type: ADME, cell-based; details: Caco-2
Rattus norvegicus [10] = test: Toxicity in rat at 62.5 to 250 mg/kg administered via oral gavage on day 1 and day 4; assay type: organism-based; details: in vivo
Hepatocyte = test: Metabolic stability in hepatocytes (unknown origin); assay type: ADME, cell-based
[11] = Drug uptake in dog brain at 3 mg/kg, po after 168 hrs; assay type: ADME, organism-based, Canis lupus familiaris; details: read-out: Drug uptake
[12] = Clearance in Sprague-Dawley rat at 1 mg/kg, iv or 5 mg/kg, po by LC-MS/MS analysis; assay type: ADME, organism-based; details: in vivo
[13] = Protein binding in human plasma at 1 uM after 6 hrs by equilibrium dialysis method; assay type: ADME, cell-free; details: read-out: PPB (converted)
Canis familiaris [14] = test: Toxicity in dog assessed as change in serum chemistry at 30 to 300 mg/kg administered via oral gavage on day 1 and day 5; assay type: organism-based, Canis lupus familiaris; details: in vivo
Liver [15] = test: Metabolic stability in mouse liver microsomes at 1 uM after 5 to 60 mins by LC-MS/MS analysis; assay type: ADME, microsome
Rattus norvegicus [16] = test: Ex vivo receptor occupancy at P2X7 in po dosed Sprague-Dawley rat brain after 60 mins by autoradiography; assay type: functional
[17] = Solubility of compound in phosphate buffer at pH 7 after 3 days; assay type: physicochemical
Liver [18] = test: Metabolic stability in human liver microsomes at 1 uM after 5 to 60 mins by LC-MS/MS analysis; assay type: ADME, microsome
[19] = Volume of distribution at steady state in beagle dog at 0.5 mg/kg, iv or 2.5 mg/kg, po by LC-MS/MS analysis; assay type: ADME, organism-based, Canis lupus familiaris; details: in vivo, read-out: Vdss
P2X purinoceptor 7 = P2X purinoceptor 7 (Mus musculus, UniProt Q9Z1M0); test: Antagonist activity at P2X7 in mouse whole blood assessed as inhibition of BzATP-induced IL-1beta release preincubated for 30 mins followed by BzATP addition measured after […] by ELISA
Canis familiaris [20] = test: Toxicity in dog at 30 to 300 mg/kg administered via oral gavage on day 1 and day 5 by hematoxylin-eosin staining-based necroscopic method; assay type: organism-based, Canis lupus familiaris; details: in vivo
[21] = target: P2X purinoceptor 2 (Homo sapiens) (UniProt Q9UBL9); test: Antagonist activity at P2X2 (unknown origin) assessed as inhibition of BzATP-induced calcium flux up to 10 uM preincubated for 30 mins followed by BzATP addition measured over 180 secs by FLIPR assay
Rattus norvegicus [22] = test: Ex vivo receptor occupancy at P2X7 in Sprague-Dawley rat brain at 10 mg/kg, po after 24 hrs by autoradiography; assay type: functional
[23] = Antagonist activity at dog P2X7 assessed as inhibition of BzATP-induced calcium flux preincubated for 30 mins followed by BzATP addition measured over 180 secs by FLIPR assay; parameters: species or system Canis lupus familiaris
[24] = target: P2X purinoceptor 7 (Rattus norvegicus) (UniProt Q64663); test: Displacement of [3H]-(6S)-7-[[2-chloro-3-(trifluoromethyl)phenyl]methyl]-6-methyl-3-pyrimidin-2-yl-5,6dihydro[1,2,4]triazolo[4,3-a]pyrazin-8-one from P2X7 in rat frontal cortex at 100 pM to 10 uM
[25] = Metabolic stability in cynomolgus monkey liver microsomes at 1 uM after 5 to 60 mins by LC-MS/MS analysis; assay type: ADME, Macaca fascicularis, microsome
Liver [26] = test: Metabolic stability in rat liver microsomes at 1 uM after 5 to 60 mins by LC-MS/MS analysis; assay type: ADME, microsome
Rattus norvegicus [27] = test: Ex vivo receptor occupancy at P2X7 in po dosed Sprague-Dawley rat brain assessed as plasma concentration required to achieve EC50 after 60 mins by autoradiography; assay type: functional, organism-based
[28] = Volume of distribution at steady state in cynomolgus monkey at 1 mg/kg, iv or 5 mg/kg, po by LC-MS/MS analysis; assay type: ADME, organism-based, Macaca fascicularis; details: in vivo, read-out: Vdss
[29] = Drug uptake in dog brain at 3 mg/kg, po after 96 hrs; assay type: ADME, organism-based, Canis lupus familiaris; details: read-out: Drug uptake
Liver [30] = test: Metabolic stability in dog liver microsomes at 1 uM after 5 to 60 mins by LC-MS/MS analysis; assay type: ADME, Canis lupus familiaris, microsome
[31] = Volume of distribution at steady state in Sprague-Dawley rat at 1 mg/kg, iv or 5 mg/kg, po by LC-MS/MS analysis; assay type: ADME, organism-based; details: in vivo, read-out: Vdss
P2X purinoceptor = P2X purinoceptor (Macaca mulatta, UniProt G7N604); test: Antagonist activity at macaque P2X7 assessed as inhibition of BzATP-induced calcium flux preincubated for 30 mins followed by BzATP addition measured over 180 secs by FLIPR assay
[32] = Clearance in cynomolgus monkey at 1 mg/kg, iv or 5 mg/kg, po by LC-MS/MS analysis; assay type: ADME, organism-based, Macaca fascicularis; details: in vivo
[33] = target: P2X purinoceptor 1 (Homo sapiens) (UniProt P51575); test: Antagonist activity at P2X1 (unknown origin) assessed as inhibition of BzATP-induced calcium flux up to 10 uM preincubated for 30 mins followed by BzATP addition measured over 180 secs by FLIPR assay
Canis familiaris [34] = test: Oral bioavailability in beagle dog at 2.5 mg/kg by LC-MS/MS analysis; assay type: ADME, organism-based, Canis lupus familiaris; details: in vivo
[35] = Oral bioavailability in Sprague-Dawley rat at 5 mg/kg by LC-MS/MS analysis; assay type: ADME, organism-based; details: in vivo
[36] = Half life in Sprague-Dawley rat at 1 mg/kg, iv by LC-MS/MS analysis; assay type: ADME, organism-based; details: in vivo
[37] = Protein binding in rat plasma at 1 uM after 6 hrs by equilibrium dialysis method; assay type: ADME, cell-free; details: read-out: PPB (converted)
[38] = target: P2X purinoceptor 7 (Homo sapiens) (UniProt Q99572); details: 100 pM
Description: Displacement of [3H]-(6S)-7-[[2-chloro-3-(trifluoromethyl)phenyl]methyl]-6-methyl-3-pyrimidin-2-yl-5,6dihydro[1,2,4]triazolo[4,3-a]pyrazin-8-one from P2X7 in human superior frontal gyrus at 100 pM to 10 uM

[39] = target: P2X2/P2X3 heterotrimeric receptor (Homo sapiens) (UniProt Q9UBL9+P56373); test: Antagonist activity at P2X2/3 (unknown origin) assessed as inhibition of BzATP-induced calcium flux up to 10 uM preincubated for 30 mins followed by BzATP addition measured over 180 secs by FLIPR assay; assay type: protein-complex assay

P2X purinoceptor, sequence (G7N604 whole entry): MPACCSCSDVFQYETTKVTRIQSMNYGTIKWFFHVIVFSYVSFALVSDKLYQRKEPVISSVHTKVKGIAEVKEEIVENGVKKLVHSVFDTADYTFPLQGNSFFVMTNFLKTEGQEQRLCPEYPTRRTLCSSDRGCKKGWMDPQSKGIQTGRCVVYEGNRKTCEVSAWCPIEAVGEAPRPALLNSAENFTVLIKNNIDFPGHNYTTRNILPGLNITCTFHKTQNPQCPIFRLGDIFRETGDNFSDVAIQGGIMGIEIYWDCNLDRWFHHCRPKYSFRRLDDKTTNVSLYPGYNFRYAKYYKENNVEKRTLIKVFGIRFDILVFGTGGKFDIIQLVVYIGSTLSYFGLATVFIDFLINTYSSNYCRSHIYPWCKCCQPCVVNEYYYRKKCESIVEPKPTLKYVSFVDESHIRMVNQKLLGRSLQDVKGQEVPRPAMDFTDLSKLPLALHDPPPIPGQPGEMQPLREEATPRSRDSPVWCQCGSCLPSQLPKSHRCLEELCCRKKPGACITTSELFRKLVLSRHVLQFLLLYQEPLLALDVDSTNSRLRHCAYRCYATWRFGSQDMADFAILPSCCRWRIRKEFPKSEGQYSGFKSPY
P2X purinoceptor 3 (Homo sapiens), sequence (P56373 whole entry): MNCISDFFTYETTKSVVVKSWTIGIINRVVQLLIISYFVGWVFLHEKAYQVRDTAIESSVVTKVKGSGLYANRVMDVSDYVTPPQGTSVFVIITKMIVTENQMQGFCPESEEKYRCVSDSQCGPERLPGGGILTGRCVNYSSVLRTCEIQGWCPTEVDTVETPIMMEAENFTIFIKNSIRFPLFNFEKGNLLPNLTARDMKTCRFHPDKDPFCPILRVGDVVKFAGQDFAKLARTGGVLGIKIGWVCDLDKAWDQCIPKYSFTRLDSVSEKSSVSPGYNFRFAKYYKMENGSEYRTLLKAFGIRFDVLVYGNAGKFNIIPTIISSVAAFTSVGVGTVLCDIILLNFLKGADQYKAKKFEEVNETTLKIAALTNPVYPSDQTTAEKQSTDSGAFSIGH
P2X purinoceptor 1 (Homo sapiens), sequence (P51575 whole entry): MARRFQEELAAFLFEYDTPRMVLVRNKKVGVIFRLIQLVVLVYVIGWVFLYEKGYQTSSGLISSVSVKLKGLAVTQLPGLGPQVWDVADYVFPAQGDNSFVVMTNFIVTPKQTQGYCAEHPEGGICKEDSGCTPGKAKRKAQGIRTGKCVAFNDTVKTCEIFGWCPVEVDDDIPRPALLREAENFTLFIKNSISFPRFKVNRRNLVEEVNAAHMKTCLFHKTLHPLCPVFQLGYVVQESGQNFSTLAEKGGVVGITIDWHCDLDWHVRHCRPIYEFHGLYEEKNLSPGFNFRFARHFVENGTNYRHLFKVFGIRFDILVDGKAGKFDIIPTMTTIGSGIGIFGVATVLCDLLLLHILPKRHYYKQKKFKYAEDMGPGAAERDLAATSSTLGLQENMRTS
P2X purinoceptor 2 (Homo sapiens), sequence (Q9UBL9 whole entry): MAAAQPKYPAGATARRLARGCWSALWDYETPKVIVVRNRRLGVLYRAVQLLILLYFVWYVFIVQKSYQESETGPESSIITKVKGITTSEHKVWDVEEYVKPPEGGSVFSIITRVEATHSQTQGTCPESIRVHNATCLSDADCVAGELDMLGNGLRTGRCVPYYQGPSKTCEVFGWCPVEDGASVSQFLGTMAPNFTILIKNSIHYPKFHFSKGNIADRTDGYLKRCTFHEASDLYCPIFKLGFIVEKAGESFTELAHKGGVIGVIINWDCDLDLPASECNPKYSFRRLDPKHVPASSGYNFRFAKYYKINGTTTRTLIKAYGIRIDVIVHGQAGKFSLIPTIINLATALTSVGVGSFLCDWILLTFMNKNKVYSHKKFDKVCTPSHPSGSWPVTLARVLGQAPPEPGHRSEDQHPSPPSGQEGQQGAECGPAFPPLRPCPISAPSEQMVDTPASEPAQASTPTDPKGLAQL
P2X purinoceptor 7 (Homo sapiens), sequence (Q99572 whole entry): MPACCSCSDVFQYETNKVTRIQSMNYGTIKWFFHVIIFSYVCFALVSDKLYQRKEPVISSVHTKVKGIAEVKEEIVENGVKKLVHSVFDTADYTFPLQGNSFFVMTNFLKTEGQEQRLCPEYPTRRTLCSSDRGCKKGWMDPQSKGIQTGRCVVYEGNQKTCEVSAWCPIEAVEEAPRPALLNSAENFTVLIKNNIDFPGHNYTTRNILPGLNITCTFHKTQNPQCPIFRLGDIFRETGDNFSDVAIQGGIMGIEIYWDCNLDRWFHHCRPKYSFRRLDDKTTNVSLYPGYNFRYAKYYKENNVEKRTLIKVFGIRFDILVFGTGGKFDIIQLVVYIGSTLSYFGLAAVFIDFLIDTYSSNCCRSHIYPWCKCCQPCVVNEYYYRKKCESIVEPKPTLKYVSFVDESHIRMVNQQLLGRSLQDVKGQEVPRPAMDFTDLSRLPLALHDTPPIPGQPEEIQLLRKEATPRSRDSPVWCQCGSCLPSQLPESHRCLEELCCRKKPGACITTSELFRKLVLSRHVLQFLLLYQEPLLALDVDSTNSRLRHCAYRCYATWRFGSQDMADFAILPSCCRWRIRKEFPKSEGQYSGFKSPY
P2X purinoceptor 7 (Rattus norvegicus), sequence (Q64663 whole entry): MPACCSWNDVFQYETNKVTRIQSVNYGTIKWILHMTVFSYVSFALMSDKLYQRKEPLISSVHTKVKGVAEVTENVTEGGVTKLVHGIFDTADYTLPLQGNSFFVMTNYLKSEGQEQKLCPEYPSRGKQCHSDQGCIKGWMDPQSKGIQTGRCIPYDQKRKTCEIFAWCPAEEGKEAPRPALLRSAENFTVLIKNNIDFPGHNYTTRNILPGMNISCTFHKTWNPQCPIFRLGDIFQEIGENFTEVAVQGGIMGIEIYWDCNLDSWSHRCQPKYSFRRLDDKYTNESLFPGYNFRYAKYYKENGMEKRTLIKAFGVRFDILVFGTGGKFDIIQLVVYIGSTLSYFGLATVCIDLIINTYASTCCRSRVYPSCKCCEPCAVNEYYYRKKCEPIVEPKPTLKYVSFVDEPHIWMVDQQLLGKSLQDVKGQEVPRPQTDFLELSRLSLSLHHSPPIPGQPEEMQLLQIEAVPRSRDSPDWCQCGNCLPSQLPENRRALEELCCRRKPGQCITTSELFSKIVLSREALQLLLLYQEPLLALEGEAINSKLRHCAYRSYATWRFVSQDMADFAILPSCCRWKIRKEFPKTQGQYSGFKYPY
P2X purinoceptor 7, sequence (Q9Z1M0 whole entry): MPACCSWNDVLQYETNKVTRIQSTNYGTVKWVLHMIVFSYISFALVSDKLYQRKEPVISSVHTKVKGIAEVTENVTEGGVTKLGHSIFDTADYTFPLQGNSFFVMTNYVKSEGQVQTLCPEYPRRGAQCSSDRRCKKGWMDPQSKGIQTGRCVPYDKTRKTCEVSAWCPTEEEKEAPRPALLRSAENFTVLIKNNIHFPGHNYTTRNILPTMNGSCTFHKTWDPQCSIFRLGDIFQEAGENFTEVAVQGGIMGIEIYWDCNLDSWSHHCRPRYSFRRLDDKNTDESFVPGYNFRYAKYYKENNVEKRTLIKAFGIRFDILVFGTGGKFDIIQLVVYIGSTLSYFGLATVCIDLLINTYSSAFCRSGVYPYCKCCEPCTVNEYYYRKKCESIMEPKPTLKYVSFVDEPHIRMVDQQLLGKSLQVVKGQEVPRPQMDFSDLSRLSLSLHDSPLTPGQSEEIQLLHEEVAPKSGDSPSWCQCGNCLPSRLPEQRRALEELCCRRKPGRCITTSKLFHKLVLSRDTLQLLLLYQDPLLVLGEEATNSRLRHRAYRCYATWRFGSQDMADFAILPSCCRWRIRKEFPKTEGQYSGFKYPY

inhibition [1]: inactive
F (Cynomolgus monkey): 157%
clearance [3]: 0.9 mL/min/kg
solubility at 72 h [4]: 38.7 µM (≈ 17.1 µg/mL)
half-life [5]: 32 h
Drug uptake (Canis familiaris [6]): Active
fraction unbound at 6 h, 1 µM [7]: 0.113
Papp B→A [9]: 48.8 ×10⁻⁶ cm/s
Stability (Hepatocyte): Stable
concentration at 168 h [11]: ≤ 500 nM
clearance [12]: 2.9 mL/min/kg
fraction unbound at 6 h, 1 µM [13]: 0.112
Stability (Liver [15]): Stable
Occ (Rattus norvegicus [16]): Dose-dependent effect
solubility at 72 h [17]: 20.7 µM (≈ 9.12 µg/mL)
Stability (Liver [18]): Stable
Vd [19]: 2.5 L/kg
IC50 (P2X purinoceptor 7): 31.6 nM
inhibition [21]: inactive
pIC50 [23]: 7.9
inhibition [24]: Dose-dependent effect
Stability [25]: Stable
Stability (Liver [26]): Stable
Cp (Rattus norvegicus [27]): 105 ng/mL
Vd [28]: 2.1 L/kg
concentration at 96 h [29]: > 1000 nM
Stability (Liver [30]): Stable
Vd [31]: 2.1 L/kg
IC50 (P2X purinoceptor): 7.94 nM
clearance [32]: 4.4 mL/min/kg
inhibition [33]: inactive
F (Canis familiaris [34]): 164%
bioavailability [35]: 96%
half-life [36]: 8.6 h
fraction unbound at 6 h, 1 µM [37]: 0.122
inhibition [38]: Dose-dependent effect
inhibition [39]: inactive
SMILES: C[C@@H]1c2nnn(-c3ncc(F)cn3)c2CCN1C(=O)c1cccc(C(F)(F)F)c1Cl [JNJ-54175446]
Activity (Canis familiaris [2]): Non-Toxic
inhibition (Canis familiaris [8]): Active
Activity (Rattus norvegicus [10]): Non-Toxic
Activity (Canis familiaris [14]): Non-Toxic
ED50 (Rattus norvegicus [16]; 1 h): 0.46 mg/kg
Activity (Canis familiaris [20]): Non-Toxic
Occ (Rattus norvegicus [22]): >80%
